Assay results taken from US7259140B2, “Heparin-binding peptides and uses thereof” (Thomas Jefferson University, priority 2003, dated 2007).
Entries after “also recorded” stand apart in the source; their conditions may differ. Ends that are not written are not given here.

Columns and labels:
[1] = Affinity coelectrophoresis (ACE) of peptide binding to radiolabeled low Mr heparin; parameters: species or system pig
From the text: Preparation of Radiolabeled Heparin. Whole heparin from pig intestinal mucosa (Sigma) was tyramine end-labeled and radiolabeled with Na^125I (Amersham, Pharmacia Biotech, Inc., Piscataway, N.J.) to an average specific activity≅1.0×10^7 CPM/μg as described (San Antonio, J. D., et al., Biochemistry, 32:4746-4755, 1993). Radiolabeled heparin was fractionated on Sephadex G-100 (Bio-Rad Laboratories, Hercules, Calif.) and the final≅12% of material to elute was retained as the low Mr material of ≦6,000 (Jordan, R., D. Beeler, and R. Rosenberg, J. Biol. Chem., 254:2902-2913, 1979; Laurent, T. C., et al., Biochem. J., 175:691-701, 1978).
Analysis of Peptide-Heparin Interactions by Affinity Coelectrophoresis (ACE). ACE was used to study interactions between peptides and low molecular weight (low Mr) heparin (WO00/45831). In ACE, trace concentrations of radiolabeled heparin are electrophoresed through agarose lanes containing peptides at various concentrations. These analyses are used to determine the dissociation constants (Kd's). The electrophoretic patterns of radiolabeled heparin are then visualized using a phosphorimager, and the dissociation constant (Kd) corresponds to the protein concentration at which the heparin is half shifted from being fully mobile at very low protein concentrations to maximally retarded at saturating protein concentrations. The lower the Kd value, the higher the affinity.
Binding of radiolabeled heparin to peptides was studied by ACE as detailed elsewhere (San Antonio, J. D., et al., Biochemistry, 32:4746-4755, 1993). […] Briefly, peptides were dissolved in 1×ACE running buffer, 50 mM sodium 3-(N-morpholino)-2-hydroxypropanesulfonate (MOPSO, Sigma)/125 mM sodium acetate, pH 7.0, and serially diluted in running buffer at 2× concentrations. Peptides were then mixed 1:1 with 2% agarose/1% CHAPS, 3-[(3-cholamidopropyl)dimethylammonio]-1-propanesulfonate, (Boehringer Mannheim, Indianapolis, Ind.), and loaded into wells of a 1% agarose gel. Radiolabeled heparin was then loaded in a slot on the anode side of the gel, and electrophoresed through the peptide-containing wells, towards the cathode. Gels were dried and PG mobility was measured with a Phosphorimager (Molecular Dynamics, Sunnyvale, Calif.) by scanning each protein lane and determining the relative radioactivity content per 88-μm pixel through the length of the lane. Retardation coefficient (R) measurements, binding isotherm curve fittings, and apparent Kd value determinations were calculated as detailed previously (Lee, M. K., and A. D. Lander, Proc. Natl. Acad. Sci. USA, 88:2768-2772, 1991; San Antonio, J. D., et al, Biochemistry, 32:4746-4755, 1993).
Retardation coefficients (R) for the migration of low Mr 1^25I-tyramine-heparin through peptides were determined from ACE gel electrophoretograms, and are plotted against peptide concentration. Smooth curves represent non-linear least-squares fits to the equation R=R∞/{1+(Kd/[peptide])^n}.

[2] = Hemodynamic effects in rats without prior Lovenox; conditions: no Lovenox
Description: Rats were sedated, and catheters were inserted into the femoral vein and femoral artery. The femoral artery catheter was hooked up to the computerized monitoring system, and injections were made through the femoral vein. Peptides were injected into rats without prior injection of Lovenox. Two or more rats (300-350 grams) were treated with 2 mg protamine or peptide.
At the times indicated in the figures, the following actions were taken: administration of saline to insure that the animal and intubations were stable; administration of test peptide or protamine alone; then administration of protamine.

[3] = tested on: platelets; assay: Platelet aggregation with aggregation-inducing agents; format: cell-based, human; conditions: 12 μg/ml; Lovenox 0.5 U/ml; collagen, ADP, ristocetin, epinephrine, SFFLRN, A23187
Description: Plasma from six volunteers was tested with various aggregation inducing agents, at several concentrations of each agent, and with six different peptides of the invention. The effect of heparin-binding peptides of the invention on platelet aggregation was determined using standard procedures as previously described. The six peptides which were synthesized and tested were: (ARKKAAKA)4 (SEQ ID NO:31), ARKKAAKA(A16)ARKKAAKA (SEQ ID NO:30), (ARKKAAKA)3ARKKCAKA (SEQ ID NO:33), (ARKKAAKA)3VLVLVLVL (SEQ ID NO:5), C(ARKKAAKA)4C (SEQ ID NO:34), and (AKKARA)6 (SEQ ID NO:32).
The aggregation-inducing agents tested were: collagen, adenosine diphosphate (ADP), ristocetin, epinephrine, the thrombin receptor peptide SFFLRN, and calcium ionophore A23187. Platelets were subjected to protamine, or to SEQ ID NOS:31, 33, 30, 5, 34, or 32 at 12 μg/ml, and Lovenox® at 0.5 U/ml. Platelet aggregation in response to agonists was monitored and percent aggregation was determined over a five minute interval.
The agonist was added after equilibration of the platelets for one minute.

[4] = tested on: anti-Factor Xa Activity of the Low Molecular Weight Heparin Lovenox ®; assay: Anti-Factor Xa assay (Stachrom Heparin kit): neutralization of Lovenox in citrate or plasma in vitro; format: biochemical, human; conditions: in both citrate and plasma
Description: (§1) The ability of peptides such as (ARKKAAKA)3VLVLVLVL (SEQ ID NO:5) to neutralize the anti-Factor Xa activity of UFH and LMWH in vitro was tested using the Stachrom Heparin kit (Diagnostica Stago), a standard hematology laboratory assay used to measure the anti-Factor Xa activity of heparin. The assay was performed using the low molecular weight heparin enoxaparin sodium (Lovenox®, Aventis Pharmaceuticals, Inc.), unfractionated heparin (UFH), or the non-heparin glycosaminoglycan danaparoid sodium (Orgaran®, Organon Inc., West Orange, N.J.) in 0.32% citrate or in plasma anticoagulated with 0.32% citrate. Enoxaparin is commonly used clinically as a low molecular weight heparin (LMWH). Danaparoid is commonly used clinically as a non-heparin glycosaminoglycan anticoagulant. Currently, the only FDA approved drug to target UFH is protamine, which is not effective in vivo against LMWH or a non-heparin glycosaminoglycan such as danaparoid. Buffer and ATIII are added to form the heparin/ATIII complex, peptide is added, then Factor Xa, reporter dye substrate for Factor Xa activity, and stop solution, and the dye concentration is read at 405 nm. The absorbance of the dye increases with increasing Factor Xa activity, and thus is inversely proportional to the heparin (anti-Factor Xa activity) concentration. Peptides were tested in plasma obtained from three volunteers (A, B, and C). Platelet function inhibitors PG12 and theophylline were added to the blood immediately upon collection.
Results. […] (ARKKAAKA)3VLVLVLVL (SEQ ID NO:5) and VLVL(ARKKAAKA)3ARKKCAKA (SEQ ID NO:38) were able to neutralize about 0.4 U/ml anti-Factor Xa activity of LMWH at a concentration of 12 μg/ml, which would be an effective dose for patients. (AKKARA)6 (SEQ ID […]), (ARKKAAKA)4 (SEQ ID NO:31) and (ARKKAAKA)3ARKKCAKA […] 0.3-0.35 U/ml. In contrast, 12 μg protamine only neutralized about 0.25 U/ml of LMWH under these conditions.

[5] = tested on: anti-Factor Xa Activity of Unfractionated Heparin; assay: Anti-Factor Xa assay: neutralization of unfractionated heparin in citrate or plasma in vitro; format: biochemical, human; conditions: in both citrate and plasma
Description: as §1, with “collection. […]” for “collection.”

[6] = Hemodynamic effects in rats after administration of the LMWH Lovenox; conditions: in the presence of LMWH Lovenox
Description: Next, experiments were performed in which the animals were treated with the peptides after the administration of the LMWH Lovenox®, as would happen in the clinical situation, because binding of peptides to LMWH would be expected to reduce the effects of the peptides on hemodynamic function.

[7] = tested on: Lovenox ® Activity in Blood from Patients Treated with Lovenox ®; assay: Neutralizing Lovenox activity in blood from patients treated with Lovenox (anti-Factor Xa assay); format: biochemical, human; conditions: Peptide 12 μg/ml
Description: Blood was obtained from volunteers who were being treated with Lovenox® for their medical conditions after obtaining signatures on informed consent forms as approved by the Institutional Review Board. The assays to test neutralization of Lovendx® were performed as described for Table 2. A dose response from 1-60 μg/ml was evaluated as in Table 2.
The dose response pattern for the effective peptides was similar to the dose response in control plasma to which Lovenox® had been added. Each data point represents the mean and standard deviation of triplicate analyses on the same sample of blood from each patient.

## (ARKKAAKA)4VLVLVLVL (ARKKAAKAARKKAAKAARKKAAKAARKKAAKAVLVLVLVL; Fragment) [SEQ ID NO:1]
[1]
  affinity for low molecular weight heparin: high affinity

## AKKARAAKKARAAKKARAAKKARAAKKARAAKKARA [(AKKARA)6]
[2]; 2 mg per rat (300-350 grams)
  reduction/drop of blood pressure: about 30 mm Hg
[2]; 2 mg per rat
  time to nadir of blood pressure: 2 min
[3]
  effect on platelet aggregation: no significant inhibition or enhancement of aggregation

## ARKKAAKA (Fragment) [monomer, control peptide, reference compound]
[1]
  affinity for low molecular weight heparin: negligible affinity
[4]
  effect in the anti-Factor Xa assay for Lovenox: no effect
[5]
  effect in the anti-Factor Xa assay for UFH: no effect

## ARKKAAKAARKKAAKAARKKAAKAARKKCAKA [(ARKKAAKA)3ARKKCAKA, (ARKKAAKA)3(ARKKCAKA)]
[2]; 2 mg per rat
  effect on blood pressure: did not cause a change in blood pressure
[3]
  effect on platelet aggregation: no significant inhibition or enhancement of aggregation
[6]
  effect on blood pressure and heart rate / toxicity: no significant effect on blood pressure and heart rate; also recorded: All rats tested showed no response to peptide

## VLVLARKKAAKAPARKKAAKAVLVL
[7]; blood of Lovenox-treated Patient Number 1
  Lovenox ® Neutralized: 0.027 U/ml
[7]; blood of Lovenox-treated Patient Number 2
  Lovenox ® Neutralized: 0.012 U/ml
[7]; blood of Lovenox-treated Patient Number 3
  Lovenox ® Neutralized: 0.021 U/ml
[7]; blood of Lovenox-treated Patient Number 4
  Lovenox ® Neutralized: 0.022 U/ml
[7]; blood of Lovenox-treated Patient Number 5
  Lovenox ® Neutralized: 0 U/ml
[7]; blood of Lovenox-treated Patient Number 8
  Lovenox ® Neutralized: 0.018 U/ml
[7]; blood of Lovenox-treated Patient Number 9
  Lovenox ® Neutralized: 0.007 U/ml
[7]; blood of Lovenox-treated Patient Number 10
  Lovenox ® Neutralized: 0.025 U/ml
[7]; blood of Lovenox-treated Patient Number 11
  Lovenox ® Neutralized: 0.050 U/ml
[1]; pH 7.0, mean and standard deviation of four assays, read-out: Kd (nM), affinity for low molecular weight heparin
  Kd: 5220 ± 1550 nM
